Laboratory results published in paper PMC6274259, “New 3-Cyano-2-Substituted Pyridines Induce Apoptosis in MCF 7 Breast Cancer Cells” (Molecules, 2016).

How the values were obtained:
Type in all cases: cell-based, human
MCF-7 cells [1] = assay: Enzyme linked immunosorbent apoptosis assay (Cell Death Detection ELISA PLUS)
Procedure: Compound 9a was further investigated for induction of apoptosis in MCF-7 cells using Cell Death Detection ELISA^PLUS which is used for the quantitative in vitro determination of cytoplasmic histone-associated DNA fragments (mono- and oligonucleosomes) in apoptosing cells.
Cells were seeded at a density of 2 × 10^4/ well in a 96-well plate and incubated for 24 h. […] An ELISA assay was performed using Cell Death Detection ELISA PLUS kit (Roche-Applied Science, Indianapolis, IN, USA) for the quantitative in vitro determination of cytoplasmic histone-associated DNA fragments (mono- and oligonucleosomes) in apoptosing cells. Briefly, cells were lysed with 200-μL lysis buffer for 30 min at room temperature. The lysate was centrifuged at 200 g for 10 min. 150 μL of supernatant was collected, of which 20 μL was incubated with anti-histone biotin and anti-DNA peroxidase at room temperature for 2 h. After washing with incubation buffer three times, 100 μL of substrate solution (2,2′-azino-di(3-ethylbenzthiazolinsulphonic acid) was added to each well and incubated for 15–20 min at room temperature. The absorbance was measured using an ELISA reader (Spectra Max Plus) at 405 nm. The control group was cells without compounds treatment. Each assay was done in triplicate and the standard deviation was determined.

MCF-7 cells [2] = assay: TUNEL assay; conditions: 2 μM, 24 h, compared to control group
Text: To ascertain induction of apoptosis of compound 9a on MCF-7 cells, the results were confirmed by immune histochemical analysis using a TUNEL assay. TUNEL assay involves labeling of the 3'-hydroxyl DNA ends generated during DNA fragmentation by means of rTdT and labeled dUTP. The localized fluorescence of apoptotic cells (labeled-dUTP) in a blue background (DAPI) for nuclei staining or green background (FITC) was visualized using fluorescence microscope.
For in situ detection of apoptotic cells, a terminal-deoxynucleotidyl transferase meditated nick end labeling (TUNEL) assay was performed using DeadEndTM fluorimetric tunnel system (Promega, Madison, WI, USA). Cells were cultured on 4-chamber slides (VWR, Radnor, PA, USA) at a density of 2 × 10^4 cells/ chamber. After treatment with compound 9a, cells were washed with phosphate buffer saline (PBS) and fixed by incubation in 4% paraformaldehyde (PFA) for 20 min at 4 °C, then permeabilized with 0.05% Triton X-100 for 5 min at 4 °C. The fixed cells were then incubated with […] dUTP in terminal deoxynucleotide transferase recombinant (rTdT)-catalyzed reaction and nucleotide mixture for 60 min at 37 °C in a humidified atmosphere and then immersed in stop/wash buffer for 15 min at room temperature. Cells were then washed with PBS to remove unincorporated fluorescein-12-dUTP. […]

MCF-7 cells [3] = assay: Flow cytometric cell cycle analysis (PI staining); conditions: 2 μM, 24 h; control group 37%
Procedure: Flow cytometry is considered one of the specific tools for the investigation of molecular and morphological events occurring during cell death and cell proliferation. Therefore, the effect of compound 9a on cell cycle progression was studied by flow cytometry in propidium iodide (PI) stained cells. The percent of cells in G1, S, G2 phases was determined after treating cells with 2 μM of 9a for 24 h (Figure 4D). […] Thus, it can be concluded that compound 9a inhibits the proliferation of MCF-7 cells and the growth inhibition is associated with induction of G1 phase arrest. p27 is considered as an important regulator of cell cycle. To determine whether compound 9a-induced G1 arrest was associated with increased p27 level, and to study the effect on the expression of CDK2 and CDK4 involved in cell cycle progression, cells were analyzed for the expression of these proteins using western blot analysis after treatment with 2 μM of 9a for 24 h.
MCF-7 cells were seeded in 25 cm^2 flasks until reaching the desirable confluence of 1 million cells and media was changed to media containing compound 9a (2 μM). After 24 h incubation, the cells were harvested by trypsinization to detach the cells without affecting the integrity of the cell membrane. The cells were incubated with PI for 5 min at room temperature, washed twice with PBS and […]. […]

**Q.** Which results are given for COc1ccc(-c2cc(-c3ccc(OC)c(OC)c3)c(C#N)c(OCC(=O)NNC(=O)c3ccccc3)n2)cc1OC [Compound 9a, N'-[2-(3-cyano-4,6-bis(3,4-dimethoxyphenyl)pyridin-2-yloxy)acetyl]benzohydrazide]?
**A.** induction of apoptosis, concentration dependence (MCF-7 cells [1]; 0.1 to 4 μM): increased in a dose dependent fashion; induction of apoptosis, exposure time with optimum value (MCF-7 cells [1]; exposure 3 h to 48 h): 24 h; TUNEL staining (MCF-7 cells [2]): presence of nuclear condensation and TUNEL-positive cells; percent of G1 population (MCF-7 cells [3]): 54%
